# What was measured:
# Puccinia recondita = assay: Test Example E: Brown rust on wheat; format: in vivo; settings: for Test E control value class: class of control value
# Plasmopara viticola = assay: Test Example G: Downy mildew on vine; settings: for Test G control value: 7 to 10 days after inoculation; for Test G control value class: Downy mildew on vine (Neomuscat), 2.5 ml/pot, assessed 7 to 10 days after inoculation
# Magnaporthe grisea = assay: whole plant or invertebrate; format: in vivo; settings: for Test A control value class: class of control value
# [1] = test system: Colletotrichum orbiculare; assay: Test Example H: Anthracnose on cucumber; settings: for Test H control value: 6 to 10 days after inoculation; for Test H control value class: Anthracnose on cucumber (Sagami Hanjiro), 2.5 ml/pot, assessed 6 to 10 days after inoculation
# [2] = test system: Blumeria graminis f. sp. hordei; assay: Test Example D: Powdery mildew on barley; settings: for Test D control value class: class of control value
# Alternaia brassicicola = assay: Test Example C: Alternaria sooty spot on cabbage; format: in vivo; settings: for Test C control value class: class of control value
# From the text: Seeds of a test plant (cabbage variety: Shikidori) were planted and cultivated until the cotyledons extended.
# <Control Value> Control value=100{1−(n/3)}
# Botrytis cinerea = assay: Test Example B: Gray mold on tomato; settings: for Test B control value class: class of control value
# Phytophthora infestans = assay: whole plant or invertebrate; format: in vivo; settings: for Test F control value class: class of control value
# [3] = Brown rust on wheat, control value class
# [4] = Downy mildew on vine, 250 ppm spray
# [5] = Blast on rice, control value class
# [6] = Anthracnose on cucumber, 250 ppm spray
# [7] = Powdery mildew on barley, control value class
# [8] = Alternaria sooty spot on cabbage, control value class
# [9] = Gray mold on tomato, control value class
# [10] = Late blight on tomato, control value class
# [11] = Alternaria sooty spot on cabbage
# [12] = 250 ppm drug solution sprayed on test plant
SMILES,Test E control value (Puccinia recondita; [3]),Test G control value (Plasmopara viticola; [4]),Test A control value (Magnaporthe grisea; [5]),"Test H control value [1, 6]","Test D control value [2, 7]",Test C control value (Alternaia brassicicola; [8]),Test B control value (Botrytis cinerea; [9]),Test F control value (Phytophthora infestans; [10]),also measured
CCc1cc(Br)c(=O)n(C)c1-c1ccc(F)cc1Cl [compound 317],H (more than 50% control value),H (more than 50% control value),L (50% or less control value),H (more than 50% control value),L (50% or less control value),H (more than 50% control value),H (more than 50% control value),H (more than 50% control value),
CC=Cc1cc(Cl)c(=O)n(CC)c1-c1ccc(F)cc1Cl [compound 299],H (more than 50% control value),H (more than 50% control value),L (50% or less control value),H (more than 50% control value),H (more than 50% control value),H (more than 50% control value),H (more than 50% control value),L (50% or less control value),
CCn1c(-c2ccc(C#N)cc2)c(C(O)C(C)C)cc(Cl)c1=O (stereo not shown) [compound 233],L (50% or less control value),L (50% or less control value),L (50% or less control value),L (50% or less control value),L (50% or less control value),H (more than 50% control value),L (50% or less control value),L (50% or less control value),
CCc1cc(Br)c(=O)n(CC)c1-c1ccc(F)cc1Cl [compound 186],H (more than 50% control value),H (more than 50% control value),H (more than 50% control value),H (more than 50% control value),H (more than 50% control value),H (more than 50% control value),H (more than 50% control value),L (50% or less control value),
CCn1c(-c2c(F)cccc2OCSC)c(CC(C)C)cc(Cl)c1=O [compound 105],,,,,,,,,Test E control value class (Puccinia recondita; Brown rust on wheat): L (50% or less control value); Test G control value class (Plasmopara viticola; 250 ppm spray): H (more than 50% control value); Test A control value class (Magnaporthe grisea; Blast on rice): H (more than 50% control value); Test H control value class ([1]; 250 ppm spray): H (more than 50% control value); Test D control value class ([2]; Powdery mildew on barley): L (50% or less control value); Test C control value class (Alternaia brassicicola; [11]): H (more than 50% control value); Test B control value class (Botrytis cinerea; Gray mold on tomato): H (more than 50% control value); Test F control value class (Phytophthora infestans; Late blight on tomato): L (50% or less control value)
Cc1cc(Cl)c(=O)n(C)c1-c1c(F)cccc1F [compound 4],,,,,,,,,Test E control value class (Puccinia recondita; Brown rust on wheat): L (50% or less control value); Test G control value class (Plasmopara viticola; 250 ppm spray): L (50% or less control value); Test A control value class (Magnaporthe grisea; Blast on rice): H (more than 50% control value); Test H control value class ([1]; 250 ppm spray): L (50% or less control value); Test D control value class ([2]; Powdery mildew on barley): L (50% or less control value); Test C control value class (Alternaia brassicicola; [11]): H (more than 50% control value); Test B control value class (Botrytis cinerea; Gray mold on tomato): L (50% or less control value); Test F control value class (Phytophthora infestans; Late blight on tomato): H (more than 50% control value)
CCc1cc(Br)c(=O)n(CC)c1-c1ccc(OC)cc1Br [compound 346],H (more than 50% control value),H (more than 50% control value),H (more than 50% control value),H (more than 50% control value),L (50% or less control value),H (more than 50% control value),H (more than 50% control value),L (50% or less control value),
CCCCC(O)c1cc(Cl)c(=O)n(CC)c1-c1c(F)cc(F)cc1F (stereo not shown) [compound 276],H (more than 50% control value),H (more than 50% control value),H (more than 50% control value),L (50% or less control value),H (more than 50% control value),H (more than 50% control value),H (more than 50% control value),L (50% or less control value),
CCCc1cc(Cl)c(=O)n(CC(F)F)c1-c1c(F)cccc1F [compound 492],,,,,,,,,"Test E control value (Puccinia recondita; [12]): H (more than 50% control value); Test G control value (Plasmopara viticola; 250 ppm drug solution sprayed (2.5 ml/pot), grape Neomuscat): H (more than 50% control value); Test A control value (Magnaporthe grisea; [12]): H (more than 50% control value); Test H control value ([1]; 250 ppm drug solution sprayed (2.5 ml/pot), cucumber Sagami Hanjiro): H (more than 50% control value); Test D control value [2, 12]: H (more than 50% control value); Test C control value (Alternaia brassicicola; [12]): H (more than 50% control value); Test B control value (Botrytis cinerea; [12]): H (more than 50% control value); Test F control value (Phytophthora infestans; [12]): L (50% or less control value)"
CCn1c(-c2c(F)cc(F)cc2F)c(C(OC)C(C)C)cc(Cl)c1=O (stereo not shown) [compound 65],,,,,,,,,Test E control value class (Puccinia recondita; Brown rust on wheat): H (more than 50% control value); Test G control value class (Plasmopara viticola; 250 ppm spray): L (50% or less control value); Test A control value class (Magnaporthe grisea; Blast on rice): H (more than 50% control value); Test H control value class ([1]; 250 ppm spray): H (more than 50% control value); Test D control value class ([2]; Powdery mildew on barley): H (more than 50% control value); Test C control value class (Alternaia brassicicola; [11]): H (more than 50% control value); Test B control value class (Botrytis cinerea; Gray mold on tomato): H (more than 50% control value); Test F control value class (Phytophthora infestans; Late blight on tomato): L (50% or less control value)
CCc1ccc(=O)n(C)c1-c1ccc(F)cc1C [compound 360],L (50% or less control value),L (50% or less control value),L (50% or less control value),L (50% or less control value),L (50% or less control value),L (50% or less control value),L (50% or less control value),H (more than 50% control value),
CCc1ccc(=O)n(CC)c1-c1ccc(F)cc1C [compound 347],L (50% or less control value),L (50% or less control value),L (50% or less control value),L (50% or less control value),L (50% or less control value),H (more than 50% control value),H (more than 50% control value),L (50% or less control value),
CCn1c(-c2ccc(F)cc2Br)c(CC(C)C)cc(Cl)c1=O [compound 200],H (more than 50% control value),H (more than 50% control value),H (more than 50% control value),H (more than 50% control value),H (more than 50% control value),H (more than 50% control value),H (more than 50% control value),H (more than 50% control value),
CCc1cc(Br)c(=O)n(C)c1-c1ccc(OC)cc1Br [compound 358],H (more than 50% control value),L (50% or less control value),L (50% or less control value),L (50% or less control value),H (more than 50% control value),L (50% or less control value),H (more than 50% control value),L (50% or less control value),

# Source: US11147272B2, “Pyridone compounds and agricultural and horticultural fungicides comprising the same as active ingredients” (MITSUI CHEMICALS AGRO, INC., priority 2017, dated 2021)
